pEC50: −log10 of the molar value. Like-named read-outs stand apart in the source and are kept apart here.
Tests used:
TBCYP51 = TBCYP51 (Trypanosoma brucei brucei, UniProt Q385E8); type: binding
I105F mutant of TCCYP51 = I105F mutant of TCCYP51 (Trypanosoma cruzi, UniProt Q7Z1V1, I105F); type: binding
[1] = test system: TC infected cardiomyoblasts; assay: inhibition of TC multiplication within cardiomyoblasts; type: cell-based, Trypanosoma cruzi; settings: 30 µM
Trypanosoma brucei = assay: TB cellular growth inhibition; type: cell-based; settings: read-out: EC50 / 50% cell growth inhibition for TB, form not stated
Trypanosoma cruzi [2] = assay: TC cellular growth inhibition; type: cell-based
TCCYP51 [3] = target: T1, TCCYP51 (Trypanosoma cruzi, UniProt Q7Z1V1); type: binding; settings: for spectral response: TCCYP51
TCCYP51 [4] = target: T1, TCCYP51; settings: cited from earlier work
TCCYP51 [5] = target: T1, TCCYP51; settings: cited from earlier work; remark: listed apart in the source
TCCYP51 [6] = target: T1, TCCYP51; type: biochemical; settings: T. cruzi CYP51, initial rate
Trypanosoma cruzi [7] = settings: read-out: published EC50 values in TC cells; cited from earlier work

## 32-Methylene cyclopropyl-lanost-7-enol [MCP]
TBCYP51; TBCYP51
  spectral response: type 1 spectral responses
TBCYP51; TBCYP51, maximal upon titration
  high spin content (low to high spin transition in the heme iron): 85%
I105F mutant of TCCYP51
  high spin form: 87%
  spectral response: type 1 spectral responses
[1]
  parasite cells cleared from TC infected cardiomyoblasts: more than 90%
[1]; 72 h, trypanosomes pre-incubated with compound
  number of intracellular parasites: dramatic decrease in the number of intracellular parasites
Trypanosoma brucei
  pEC50: < 4.30
Trypanosoma cruzi [2]; read-out: 50% cell growth inhibition of TC, TC, form not stated
  pEC50: 5.52
TCCYP51 [3]
  spectral response: type 1 spectral responses
TCCYP51 [3]; TCCYP51, maximal upon titration
  high spin content (low to high spin transition in the heme iron): 41%

## CC(C)CCC[C@@H](C)[C@H]1CC[C@@]2(CN)C3=CCC4C(C)(C)[C@@H](O)CC[C@]4(C)[C@H]3CC[C@]12C (stereo partly drawn) [AL7, 4,4-dimethyl-14α-aminomethyl-cholest-7-en-3β-ol]
TCCYP51 [4]
  I/E2 for the initial rate of TCCYP51 catalysis: 11
TCCYP51 [5]
  spectral response: type 2 spectral responses

## CC(C)CCC[C@@H](C)[C@H]1CC[C@@]2(CN)C3=C(CC[C@]12C)[C@@]1(C)CC[C@H](O)C(C)(C)C1CC3 (stereo partly drawn) [AL8, 4,4-dimethyl-14α-aminomethyl-cholest-8-en-3β-ol]
TCCYP51 [4]
  I/E2 for the initial rate of TCCYP51 catalysis: 14
TCCYP51 [5]
  spectral response: type 2 spectral responses

## O=C(NC(Cn1ccnc1)c1ccccc1)c1ccc(-c2ccc(Cl)cc2)cc1 (stereo not shown) [SDZ285604]
Trypanosoma cruzi [2]; read-out: EC50 (50% cellular growth inhibition), amastigotes (intracellular form) of TC
  pEC50: > 6.00
Trypanosoma cruzi [2]; read-out: EC50 (50% cellular growth inhibition), trypomastigotes (extracellular form) of TC
  pEC50: > 6.00

## O=C(Cn1ccnc1[N+](=O)[O-])NCc1ccccc1 [benznidazole]
TCCYP51 [6]
  I/E2 (5 min), molar ratio inhibitor/enzyme which causes a twofold decrease in the activity: 42
Trypanosoma cruzi [7]
  pEC50: 4.30 to 4.60
TCCYP51 [3]
  spectral response: does not induce spectral changes

Reference: paper PMC2715142 (Lipids, 2008)
